From patent US20090270379A1, “QUINOLONE DERIVATIVES USEFUL AS ANTIBACTERIAL AGENTS” (priority 2008, published 2009) come the findings set out here.

Holding throughout (assay type): cell-based
In experiment [1] the test system is Staphylococcus aureus OC4172. Description: In vitro antibacterial activity (MIC), microdilution broth method, strain A. Particulars: cation adjusted Mueller-Hinton broth, 35° C., 16-20 hours. As for the experimental part:
(§1) Minimal inhibitory concentration (MIC) is an indicator of in vitro antibacterial activity. […] The in vitro antimicrobial activity of representative compounds of the present invention was determined by the microdilution broth method following the test method from the National Committee for Clinical Laboratory Standards (NCCLS). This method is described in the NCCLS Document M7-A4, Vol. 17, No. 2, “Methods for Dilution Antimicrobial Susceptibility Test for Bacteria that Grow Aerobically—Fourth Edition”, which is incorporated herein by reference.
(§2) In this method two-fold serial dilutions of drug in cation adjusted Mueller-Hinton broth were added to wells in microdilution trays. The test organisms were prepared by adjusting the turbidity of actively growing broth cultures so that the final concentration of test organism after it is added to the wells was approximately 5×10^4 CFU/well. Following inoculation of the microdilution trays, the trays were incubated at 35° C. for 16-20 hours and then read. The amount of growth in the wells containing the test compound was compared with the amount of growth in the growth-control wells (no test compound) used in each tray.
(§3) Representative compounds of the present invention were tested against a variety of pathogenic bacteria with results as listed in Table 3, below.

Experiment [2] has as its system strain D, fluoroquinolone-resistant clinical isolate of Streptococcus pneumoniae. In words: In vitro antibacterial activity (MIC), microdilution broth method, strain D. As to conditions: read-out: MIC (μg/mL) D. As to the method:
as §1, §2, §3

Experiment [3] relates to strain B, fluoroquinolone-resistant clinical isolate of Streptococcus pneumoniae. In words: In vitro antibacterial activity (MIC), microdilution broth method, strain B. As to conditions: read-out: MIC (μg/mL) B. As to the method:
as §1, §2, §3

For experiment [4], the system named is Streptococcus pneumoniae ATCC 49619. Description: In vitro antibacterial activity (MIC), microdilution broth method, strain E. Particulars: ATCC49619, 35° C., 16-20 hours. As for the experimental part: as §1, §2, §3
For experiment [5], the system named is strain C, fluoroquinolone-resistant clinical isolate of Streptococcus pneumoniae. Description: In vitro antibacterial activity (MIC), microdilution broth method, strain C. Particulars: read-out: MIC (μg/mL) C. As to the method: as §1, §2, §3

In brackets after ≈: the same amount, converted by molar mass. Some results are limits rather than exact numbers.

As for `C[C@@H]1NCCn2cc(-c3nc4c(cc3F)c(=O)c(C(=O)O)cn4C3CC3)cc21` [Compound 26, 1-Cyclopropyl-6-fluoro-7-(1S-methyl-1,2,3,4-tetrahydro-pyrrolo[1,2-a]pyrazin-7-yl)-4-oxo-1,4-dihydro-[1,8]naphthyridine-3-carboxylic acid], the MIC in experiment [1] was 0.5 µg/mL (≈ 1.31 µM); in experiment [2] it was 16 µg/mL (≈ 41.8 µM); in experiment [3], 8 µg/mL (≈ 20.9 µM); in experiment [4] it was 1 µg/mL (≈ 2.62 µM); in experiment [5] it was 8 µg/mL (≈ 20.9 µM).

With `C[C@H]1Cn2cc(-c3nc4c(cc3F)c(=O)c(C(=O)O)cn4-c3ccc(F)cc3F)cc2CN1` [Compound 27, 1-(2,4-Difluoro-phenyl)-6-fluoro-7-(3S-methyl-1,2,3,4-tetrahydro-pyrrolo[1,2-a]pyrazin-7-yl)-4-oxo-1,4-dihydro-[1,8]naphthyridine-3-carboxylic acid], the MIC in experiment [1] is 0.12 µg/mL (≈ 0.264 µM); in experiment [2], > 16 µg/mL; in experiment [3] it was 16 µg/mL (≈ 35.2 µM); in experiment [4] it was 1 µg/mL (≈ 2.2 µM); in experiment [5], 16 µg/mL (≈ 35.2 µM).

Turning to `C[C@@H]1NCCn2cc(-c3nc4c(cc3F)c(=O)c(C(=O)O)cn4-c3ccc(F)cc3F)cc21` [Compound 28, 1-(2,4-Difluoro-phenyl)-6-fluoro-7-(1S-methyl-1,2,3,4-tetrahydro-pyrrolo[1,2-a]pyrazin-7-yl)-4-oxo-1,4-dihydro-[1,8]naphthyridine-3-carboxylic acid], the MIC is 1 µg/mL (≈ 2.2 µM) in experiment [1]; > 16 µg/mL in experiment [2]; 16 µg/mL (≈ 35.2 µM) in experiment [3]; 4 µg/mL (≈ 8.8 µM) in experiment [4]; > 16 µg/mL in experiment [5].

For `C[C@@H]1NCCn2cc(-c3c(F)cc4c(=O)c(C(=O)O)cn(C5CC5)c4c3OC(F)F)cc21` [Compound 29, 1-Cyclopropyl-8-difluoromethoxy-6-fluoro-7-(1S-methyl-1,2,3,4-tetrahydro-pyrrolo[1,2-a]pyrazin-7-yl)-4-oxo-1,4-dihydro-quinoline-3-carboxylic acid], the MIC in experiment [1] was determined as 0.25 µg/mL (≈ 0.559 µM); in experiment [2], 16 µg/mL (≈ 35.8 µM); in experiment [3], 1 µg/mL (≈ 2.24 µM); in experiment [4] it was 2 µg/mL (≈ 4.47 µM); in experiment [5], 8 µg/mL (≈ 17.9 µM).

Turning to `O=C(O)c1cn(-c2ccc(F)cc2F)c2nc(-c3cc4n(c3)CCN(Cc3ccccc3)C4)c(F)cc2c1=O` [Compound 30, 7-(2-Benzyl-1,2,3,4-tetrahydro-pyrrolo[1,2-a]pyrazin-7-yl)-1-(2,4-difluoro-phenyl)-6-fluoro-4-oxo-1,4-dihydro-[1,8]naphthyridine-3-carboxylic acid], the MIC was 2 µg/mL (≈ 3.77 µM) in experiment [1]; 16 µg/mL (≈ 30.2 µM) in experiment [2]; 8 µg/mL (≈ 15.1 µM) in experiment [3]; 8 µg/mL (≈ 15.1 µM) in experiment [4]; 8 µg/mL (≈ 15.1 µM) in experiment [5].

In the case of `COc1c(-c2cc3n(c2)CCN(Cc2ccccc2)C3)c(F)cc2c(=O)c(C(=O)O)cn(C3CC3)c12` [Compound 31, 7-(2-Benzyl-1,2,3,4-tetrahydro-pyrrolo[1,2-a]pyrazin-7-yl)-1-cyclopropyl-6-fluoro-8-methoxy-4-oxo-1,4-dihydro-quinoline-3-carboxylic acid], the MIC is 0.25 µg/mL (≈ 0.513 µM) in experiment [1]; > 16 µg/mL in experiment [2]; 8 µg/mL (≈ 16.4 µM) in experiment [3]; 2 µg/mL (≈ 4.1 µM) in experiment [4]; > 16 µg/mL in experiment [5].

Take `COc1c(C2=C[C@H]3CNCCN3C2)c(F)cc2c(=O)c(C(=O)O)cn(C3CC3)c12` [Compound 32, 1-Cyclopropyl-6-fluoro-7-(1,2,3,4,6,8a-hexahydro-pyrrolo[1,2S-a]pyrazin-7-yl)-8-methoxy-4-oxo-1,4-dihydro-quinoline-3-carboxylic acid]: the MIC in experiment [1] was 0.25 µg/mL (≈ 0.626 µM); in experiment [2], 16 µg/mL (≈ 40.1 µM); in experiment [3], 16 µg/mL (≈ 40.1 µM); in experiment [4], 2 µg/mL (≈ 5.01 µM); in experiment [5] it was > 16 µg/mL.

Consider `C[C@H]1COc2c(C3=C[C@H]4CNCCN4C3)c(F)cc3c(=O)c(C(=O)O)cn1c23` [Compound 33, 8-Fluoro-9-(1,2,3,4,6,8a-hexahydro-pyrrolo[12-a]pyrazin-7-yl)-3S-methyl-6-oxo-2,3-dihydro-6H-1-oxa-3a-aza-phenalene-5-carboxylic acid], for which the MIC in experiment [1] was 0.25 µg/mL (≈ 0.649 µM); in experiment [2] it was > 16 µg/mL; in experiment [3], > 16 µg/mL; in experiment [4], 2 µg/mL (≈ 5.19 µM); in experiment [5], > 16 µg/mL.

Consider `COc1c(-c2cc3n(c2)CCNC3)c(F)cc2c(=O)c(C(=O)O)cn(C3CC3)c12` [Compound 34, 1-Cyclopropyl-6-fluoro-8-methoxy-4-oxo-7-(1,2,3,4-tetrahydro-pyrrolo[1,2-a]pyrazin-7-yl)-1,4-dihydro-quinoline-3-carboxylic acid], for which the MIC is 0.03 µg/mL (≈ 0.0755 µM) in experiment [1]; 1 µg/mL (≈ 2.52 µM) in experiment [2]; 1 µg/mL (≈ 2.52 µM) in experiment [3]; 0.25 µg/mL (≈ 0.629 µM) in experiment [4]; 1 µg/mL (≈ 2.52 µM) in experiment [5].

With `C[C@H]1COc2c(-c3cc4n(c3)CCNC4)c(F)cc3c(=O)c(C(=O)O)cn1c23` [Compound 35, 8-Fluoro-3S-methyl-6-oxo-9-(1,2,3,4-tetrahydro-pyrrolo[1,2-a]pyrazin-7-yl)-2,3-dihydro-6H-1-oxa-3a-aza-phenalene-5-carboxylic acid], the MIC in experiment [1] was 0.5 µg/mL (≈ 1.3 µM); in experiment [2] it was > 16 µg/mL; in experiment [3], > 16 µg/mL; in experiment [4], 2 µg/mL (≈ 5.22 µM); in experiment [5] it was > 16 µg/mL.
